Read-outs that look alike come from different tables or passages of the source. Some results are limits rather than exact numbers.

What is called EC50 is the concentration at which the effect is half-maximal.

Assay [1] relates to cellular pERK in Kuramochi (WT KRAS) cell-line. The experiment in a line: Cell based pERK assay (HTRF), Kuramochi. The note with it: Kuramochi (WT KRAS) cells, 2 hours incubation. Here is the method:
(§1) Compounds were tested in a 384-well assay format for their ability to inhibit cellular pERK in Kuramochi (WT KRAS), MIA-PaCa-2 (KRAS-G12C), ASPC-1 (KRAS G12D), and NCI-H441 (KRAS-G12V) cell-lines. Compounds were serially diluted (1:3) in DMSO. On day −1, 80 uL of cells were plated per well in the 384 well tissue-culture plates (Greiner: Cat #781080) to seed 5000 cells per wells of AsPC-1 or 7500 cells of MIA-PaCa-2, NCI-H441, and Kuramochi cell lines in RPMI (Corning: Cat #10-040-CM) with 10% fetal bovine serum (FBS) (HyClone: Cat #SH30071-03) and 1× penicillin-streptomycin-glutamate (PSG) (Corning: Cat #30-009-CI) for […] and Kuramochi cell lines and DMEM (Corning: Cat #15-018-CM) with […] and 1× PSG for MKA-PaCa-2 cell line. The plates were then incubated overnight at 37° C. and 5% CO2. On day 0, 400 nL of compound/well was added into the cell plates and mixed 5 times by pipetting using a Beckmann Biomek FX. The cell plates were then incubated for 2 hours at 37° C. and 5% CO2. HTRF Advanced Phospho-ERK1/2 ([…]) Detection Kits (PerkinElmer: Cat #64AERPEG) were used to prepare the lysis and detection solution according to manufacturer protocol. Following the 2 hour incubation, 70 μL of medium was aspirated from the plates and 10 uL of lysis and detection solution was added to the plates using a Biotek EL406 washer and dispenser. Plates were sealed and stored overnight at room temperature. HTRF ratio (665 nm/615 nm) was read by Envision multimode reader (PerkinElmer) the next day. The TR-FRET ratios were normalized to a positive (saturating concentration of known inhibitor) and negative (DMSO) control and plotted against the log of compound concentration. IC50 values were defined as the compound concentration that causes a […] in normalized signal and were calculated using a sigmoidal dose-response model to generate curve fits.
Background: In TR-FRET formats the signal depends on donor and acceptor labels being close together.

Assay [2] relates to cellular pERK in MIA-PaCa-2 (KRAS-G12C) cell-line. Put plainly: Cell based pERK assay (HTRF), MIA-PaCa-2. The note with it: MIA-PaCa-2 (KRAS-G12C) cells, 2 hours incubation, read-out: MIAPaCa2 pERK EC50. Here is the method: as §1
Assay [3] has as its system cellular pERK in NCI-H441 (KRAS-G12V) cell-line. The experiment in a line: Cell based pERK assay (HTRF), NCI-H441. The note with it: NCI-H441 (KRAS-G12V) cells, 2 hours incubation. Here is the method: as §1
In assay [4] the test system is cellular pERK in ASPC-1 (KRAS G12D) cell-line. Put plainly: Cell based pERK assay (HTRF), ASPC-1. Particulars: ASPC-1 (KRAS G12D) cells, 2 hours incubation. Here is the method:
as §1

`C#Cc1c(F)ccc2cc(N)cc(-c3cc4c5c(nc(OC[C@@]67CCCN6C[C@H](F)C7)nc5c3F)N3CCCOCC3CC4)c12` (stereo partly shown) [Example 3-2]: the EC50 was 46.5 nM in assay [1]; 87.7 nM in assay [2] (Homo sapiens); 104 nM in assay [3] (Homo sapiens); 288 nM in assay [4] (Homo sapiens, ASPC1).

As for `C#Cc1c(F)ccc2cc(N)cc(-c3nc4c5c(nc(OC[C@@]67CCCN6[C@H](CF)CC7)nc5c3F)N3CCCOC[C@@H]3CC4)c12` [Example 7-2], the EC50 in assay [1] turned out to be 3.44 nM; in assay [2] (Homo sapiens), 4.01 nM; in assay [3] (Homo sapiens) it was 6.23 nM; in assay [4] (Homo sapiens, ASPC1), 25.8 nM.

With `C#Cc1c(F)ccc2cc(O)cc(-c3nc4c5c(nc(OC[C@@]67CCCN6CC(=C)C7)nc5c3F)N3CCCOCC3CC4)c12` (stereo partly shown) [Example 22-2], the EC50 in assay [1] is 1.63 nM; in assay [2] (Homo sapiens), 0.18 nM; in assay [3] (Homo sapiens), 1.06 nM; in assay [4] (Homo sapiens, ASPC1) it was 1.49 nM.

Take `C#Cc1c(F)ccc2cc(O)cc(-c3nc4c5c(nc(OCC67CCCN6CCC7)nc5c3F)N3CCCOC[C@@H]3CC4)c12` [Example 6-11]: the concentration for a half-maximal effect (EC50) came to 16.6 nM in assay [1]; 1.68 nM in assay [2] (Homo sapiens); 8.06 nM in assay [3] (Homo sapiens); 24.4 nM in assay [4] (Homo sapiens, ASPC1).

For `C#Cc1c(F)ccc2cccc(-c3nc4c5c(nc(OCC67CCCN6CCC7)nc5c3F)N3CCCOC[C@@H]3CC4)c12` [Example 6-9], the EC50 in assay [1] was 376 nM; in assay [2] (Homo sapiens) it was 430 nM; in assay [3] (Homo sapiens), 729 nM; in assay [4] (Homo sapiens, ASPC1) it was above 1000 nM.

For the compound `Oc1cc(-c2nc3c4c(nc(OC[C@@]56CCCN5C[C@H](F)C6)nc4c2F)N2CCCOC[C@H]2CC3)c2c(F)c(F)ccc2c1` [Example 6-3], the EC50 in assay [1] was found to be 25.8 nM; in assay [2] (Homo sapiens), 28.9 nM; in assay [3] (Homo sapiens), 48 nM; in assay [4] (Homo sapiens, ASPC1) it was 91.9 nM.

As to `C#Cc1c(F)ccc2cc(O)cc(-c3nc4c5c(nc(OC[C@@]67CCCN6C[C@H](F)C7)nc5c3F)N3CCCCC3(C)CC4)c12` (stereo partly drawn) [Example 13-1, 5-ethynyl-6-fluoro-4-(1-fluoro-11-(((2R,7aS)-2-fluorotetrahydro-11H-pyrrolizin-7a(5H)-yl)methoxy)-5a-methyl-5,5a,6,7,8,9-hexahydro-4H-3,9a,10,12-tetraazabenzo[4,5]cyclohepta[1,2,3-de]naphthalen-2-yl)naphthalen-2-ol], the EC50 is 117 nM in assay [1], 319 nM in assay [2], 380 nM in assay [3] and above 1000 nM in assay [4] (read-out: AsPC1 pERK EC50).

As to `C#Cc1c(F)ccc2cc(O)cc(-c3nc4c5c(nc(OC[C@@]67CCCN6C[C@H](F)C7)nc5c3F)N3CCCOC[C@@H]3C[C@@H]4F)c12` [Example 6-27], the EC50 in assay [1] amounted to 28.8 nM; in assay [2] (Homo sapiens), 17.4 nM; in assay [3] (Homo sapiens), 58.7 nM; in assay [4] (Homo sapiens, ASPC1), 97.1 nM.

In the case of `C#Cc1c(F)ccc2cc(O)cc(-c3nc4c5c(nc(OC[C@@]67CCCN6C[C@H](F)C7)nc5c3F)N3CCCCC[C@@H]3CC4)c12` [Example 20-1, 5-ethynyl-6-fluoro-4-((R)-1-fluoro-12-(((2R,7aS)-2-fluorotetrahydro-1H-pyrrolizin-7a(5H)-yl)methoxy)-4,5,5a,6,7,8,9,10-octahydro-3,10a,11,13-tetraazanaphtho[1,8-ab]heptalen-2-yl)naphthalen-2-ol], the EC50 in assay [1] was 6.34 nM; in assay [2] (Homo sapiens), 8.73 nM; in assay [3] (Homo sapiens), 42.3 nM; in assay [4] (Homo sapiens, ASPC1), 42.5 nM.

`C#Cc1c(F)ccc2cc(N)cc(-c3nc4c5c(nc(OC[C@@]67CCCN6C[C@H](F)C7)nc5c3F)N3CCCOC[C@H]3C=C4C)c12` [Example 7-8]: the EC50 in assay [1] was 41.1 nM; in assay [2] (Homo sapiens) it was 72.3 nM; in assay [3] (Homo sapiens), above 1000 nM; in assay [4] (Homo sapiens, ASPC1), 125 nM.

Turning to `CCc1c(F)ccc2cc(O)cc(-c3nc4c5c(nc(OC[C@@]67CCCN6C[C@H](F)C7)nc5c3F)N3CCCOC[C@@H]3CC4)c12` [Example 8-3], the half-maximal effective concentration (EC50) in assay [1] stood at 1.91 nM; in assay [2] (Homo sapiens), 1.57 nM; in assay [3] (Homo sapiens), 3.8 nM; in assay [4] (Homo sapiens, ASPC1) it was 9.88 nM.

On to `C#Cc1c(F)c(F)cc2cc(O)cc(-c3nc4c5c(nc(OC[C@@]67CCCN6C[C@H](F)C7)nc5c3F)N3CCCOC[C@@H]3CC4)c12` [Example 6-26], for which the half-maximal effective concentration (EC50) in assay [1] was determined as 2.61 nM; in assay [2] (Homo sapiens) it was 1.59 nM; in assay [3] (Homo sapiens), 4.04 nM; in assay [4] (Homo sapiens, ASPC1), 1.19 nM.

With `C#Cc1c(F)ccc2cc(O)cc(-c3nc4c5c(nc(OC[C@@]67CCCN6C[C@@H](F)C7)nc5c3F)N3CCCOC[C@@H]3CC4)c12` [Example 22-1, 5-ethynyl-6-fluoro-4-((S)-1-fluoro-12-(((2S,7aS)-2-fluorotetrahydro-1H-pyrrolizin-7a(5H)-yl)methoxy)-4,5,5a,6,9,10-hexahydro-8H-7-oxa-3,10a,11,13-tetraazanaphtho[1,8-ab]heptalen-2-yl)naphthalen-2-ol], the half-maximal effective concentration (EC50) was 8.15 nM in assay [1]; 102 nM in assay [2] (Homo sapiens); 54.8 nM in assay [3] (Homo sapiens); 92.1 nM in assay [4] (Homo sapiens, ASPC1).

Turning to `CCc1c(F)ccc2cc(O)cc(-c3nc4c5c(nc(OC[C@@]67CCCN6C[C@H](F)C7)nc5c3F)N3CCOCCC3CC4)c12` (stereo partly drawn) [Example 8-1, 5-ethyl-6-fluoro-4-(1-fluoro-12-(((2R,7a5)-2-fluorotetrahydro-1H-pyrrolizin-7a(5H)-yl)methoxy)-5,5a,6,7,9,10-hexahydro-4H-8-oxa-3,10a,11,13-tetraazanaphtho[1,8-ab]heptalen-2-yl)naphthalen-2-ol], the EC50 in assay [1] was found to be 3.19 nM; in assay [2] it was 7.72 nM; in assay [3], 13 nM; in assay [4] (read-out: AsPC1 pERK EC50), 42.4 nM.

Turning to `Cc1c(F)c(N)cc(-c2nc3c4c(nc(OC[C@@]56CCCN5C[C@H](F)C6)nc4c2F)N2CCCOC[C@@H]2CC3)c1C(F)(F)F` [Example 7-11], the concentration giving a half-maximal response (EC50) in assay [1] is 188 nM; in assay [3] (Homo sapiens) it was 724 nM; in assay [4] (Homo sapiens, ASPC1) it was above 1000 nM.

On to `CCc1c(F)c(F)cc2cc(N)cc(-c3nc4c5c(nc(OCC67CCCN6CCC7)nc5c3F)N3CCCOC[C@@H]3CC4)c12` [Example 8-4], for which the EC50 in assay [1] is 128 nM; in assay [3] (Homo sapiens) it was above 1000 nM; in assay [4] (Homo sapiens, ASPC1), above 1000 nM.

As to `C#Cc1c(F)ccc2cc(O)cc(-c3nc4c5c(nc(OC[C@@]67CCCN6C[C@H](F)C7)nc5c3F)N3CC(F)(F)COCC3CC4)c12` (mixture of isomers) [Example 6-17], the EC50 in assay [2] (Homo sapiens) is 0.7 nM; in assay [3] (Homo sapiens) it was 3.71 nM; in assay [4] (Homo sapiens, ASPC1), 10.6 nM.

`C#Cc1c(F)ccc2cc(N)cc(-c3nc4c5c(nc(OC[C@@]67CCCN6C[C@H](F)C7)nc5c3F)N3CCCOC[C@@H]3C=C4C)c12` [Example 7-7]: the concentration giving a half-maximal response (EC50) was 1.97 nM in assay [2] (Homo sapiens); 4.01 nM in assay [3] (Homo sapiens); 8.61 nM in assay [4] (Homo sapiens, ASPC1).

For `C#Cc1c(F)ccc2cc(N)cc(-c3nc4c5c(nc(OC[C@@]67CCCN6[C@H](COC(=O)N(C)C)CC7)nc5c3F)N3CCCOC[C@@H]3CC4)c12` [Example 23-4], the half-maximal effective concentration (EC50) in assay [1] amounted to 4.1 nM; in assay [3] (Homo sapiens), 57 nM; in assay [4] (Homo sapiens, ASPC1), 78 nM.

As to `C#Cc1c(F)ccc2cc(N)cc(-c3c(F)c4c5c(nc(OC[C@@]67CCCN6C[C@H](F)C7)nc5c3F)N3CCCOC[C@@H]3CC4)c12` (single isomer, unassigned) [Example 25-2], the EC50 in assay [3] turned out to be 92 nM; in assay [4] (read-out: AsPC1 pERK EC50), 67.2 nM.

Consider `C#Cc1c(F)ccc2cc(N)cc(-c3c(F)c4c5c(nc(OC[C@@]67CCCN6C[C@H](F)C7)nc5c3F)N3CCCOC[C@@H]3CC4)c12` (atropisomer, axis not shown) [Example 25-1, 4-((11S,14aS)-10,12-difluoro-8-(((2R,7aS)-2-fluorotetrahydro-1H-pyrrolizin-7a(5H)-yl)methoxy)-1,4,5,13,14,14a-hexahydro-3H-[1,4]oxazepino[4′,3′:1,7]azepino[2,3,4-de]quinazolin-11-yl)-5-ethynyl-6-fluoronaphthalen-2-amine], for which the EC50 in assay [1], in assay [3] and in assay [4] (read-out: AsPC1 pERK EC50) was above 1000 nM throughout.

(Values after patent US20240383922A1, “KRAS Modulating Compounds” (Gilead Sciences, Inc., priority 2023, published 2024).)
